Measurements taken from patent publication US9000162B2, “5,8-difluoro-4-(2-(4-(heteroaryloxy)-phenyl)ethylamino)quinazolines and their use as agrochemicals” (Dow AgroSciences LLC, priority 2008, dated 2015).

Key:
Format in all cases: in vivo
[1] = test system: Magnaporthe grisea = Pyricularia oryzae (PYRIOR); experiment: whole plant or invertebrate; conditions: foliar, read-out: Activity against fungal diseases PYRIOR
[2] = test system: Pseudoperonospora cubensis (PSPECU); experiment: Cucumber downy mildew foliar protectant test; conditions: 200 ppm foliar, inoculated one day after treatment, read-out: Activity against fungal diseases PSPECU
Procedure, shortened: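 Cucumber seedlings, first true leaf 20-80% expanded, were sprayed to wetness with formulated compound and inoculated next day with aqueous sporangia suspension. Severity was converted to percent control versus untreated inoculated plants: ***=80-100%, **=50-79%, *=0-49%.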

[3] = test system: Puccinia recondita tritici (PUCCRT); experiment: Leaf rust of wheat foliar protectant test; conditions: 200 ppm foliar, inoculated one day after treatment, read-out: Activity against fungal diseases PUCCRT
Procedure, shortened: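 Wheat seedlings (3–8 per pot) were sprayed to wet with formulated compound and inoculated the next day with an aqueous Puccinia recondita tritici spore suspension. Severity was converted to % control versus untreated inoculated plants and rated *** 80–100%, ** 50–79%, * 0–49%.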

[4] = test system: Septoria tritici (SEPTTR); experiment: Septoria blotch of wheat foliar protectant test; conditions: Zymoseptoria tritici, read-out: Activity against fungal diseases SEPTTR; for pest or weed control at 25 ppm: foliar, Tested at 25 ppm (footnote b); for pest or weed control at 200 ppm: 200 ppm foliar, inoculated one day after treatment
Procedure, shortened: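 Wheat seedlings (3-10 per pot) were sprayed to wet with formulated compound and inoculated next day with Septoria tritici spores. Plants then had 1 day in a dark dew chamber and 3 days in a lighted one before greenhouse incubation. Severity versus untreated inoculated plants gave percent control, scored *** 80-100%, ** 50-79%, * 0-49%.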

| Structure (SMILES) | pest or weed control at 200 ppm [1] [%] | pest or weed control at 200 ppm [2] [%] | pest or weed control at 200 ppm [3] [%] | pest or weed control at 25 ppm [4] [%] | pest or weed control at 200 ppm [4] [%] |
| --- | --- | --- | --- | --- | --- |
| COc1cc(CCNc2ncnc3c(F)ccc(F)c23)ccc1Oc1ccnc(C(F)(F)F)n1 [Compound 113] | 80 to 100 | 80 to 100 | 80 to 100 | 80 to 100 | – |
| Cc1cc(O)ccc1CCNc1ncnc2c(F)ccc(F)c12 [Compound 51] | 50 to 79 | 0 to 49 | 0 to 49 | – | 0 to 49 |
| Fc1cc(CCNc2ncnc3c(F)ccc(F)c23)ccc1Oc1cc(C(F)(F)F)ccn1 [Compound 49] | 80 to 100 | 80 to 100 | 80 to 100 | – | 80 to 100 |
| COc1cc(CCNc2ncnc3c(F)ccc(F)c23)ccc1Oc1cc(C(F)(F)F)cc(C)n1 [Compound 44] | 0 to 49 | 80 to 100 | 80 to 100 | – | 80 to 100 |
| Cc1c(CCNc2ncnc3c(F)ccc(F)c23)ccc(Oc2cc(C(F)(F)F)ccn2)c1C [Compound 26] | 50 to 79 | 80 to 100 | 80 to 100 | – | 80 to 100 |
| Oc1ccc(CCNc2ncnc3c(F)ccc(F)c23)cc1F [Compound 47] | 50 to 79 | 0 to 49 | 0 to 49 | – | 0 to 49 |
| Fc1ccc(F)c2c(NCCc3ccc(Oc4cnccc4C(F)(F)F)cc3)ncnc12 [Compound 43] | 50 to 79 | 80 to 100 | 80 to 100 | – | 80 to 100 |
| Fc1cc(C(F)(F)F)cnc1Oc1ccc(CCNc2ncnc3c(F)ccc(F)c23)cc1 [Compound 5] | 80 to 100 | 80 to 100 | 80 to 100 | 80 to 100 | – |
| Cc1cc(CCNc2ncnc3c(F)ccc(F)c23)ccc1Oc1cc(C(F)(F)F)ccn1 [Compound 25] | 80 to 100 | 80 to 100 | 80 to 100 | – | 80 to 100 |
| COc1cc(CCNc2ncnc3c(F)ccc(F)c23)ccc1Oc1ccnc(C(F)(F)F)c1 [Compound 77] | 80 to 100 | 80 to 100 | 80 to 100 | – | 80 to 100 |
| [O-][n+]1ccc(C(F)(F)F)cc1Oc1ccc(CCNc2ncnc3c(F)cc(F)c(F)c23)cc1 [Compound 75] | 80 to 100 | 80 to 100 | 80 to 100 | – | 80 to 100 |
| Cc1cc(CCNc2ncnc3c(F)ccc(F)c23)ccc1O [Compound 24] | 0 to 49 | 0 to 49 | 0 to 49 | – | 0 to 49 |
| COc1cc(CCNc2ncnc3c(F)ccc(F)c23)ccc1Oc1ccnc(C(F)(F)F)c1Cl [Compound 78] | 80 to 100 | 80 to 100 | 80 to 100 | – | 80 to 100 |
| Cc1cc(CCNc2ncnc3c(F)ccc(F)c23)c(C)cc1O [Compound 18] | 0 to 49 | 0 to 49 | 50 to 79 | – | 0 to 49 |
| COc1cc(CCNc2ncnc3c(F)ccc(F)c23)ccc1O [Compound 14] | 0 to 49 | 50 to 79 | 0 to 49 | 0 to 49 | – |
| COc1cc(CCNc2ncnc3c(F)ccc(F)c23)ccc1Oc1ncc(C(F)(F)F)cc1F [Compound 45] | 0 to 49 | 80 to 100 | 80 to 100 | – | 80 to 100 |
| Cc1cc(CCNc2ncnc3c(F)ccc(F)c23)ccc1Oc1nc(F)c(F)c(N)c1F [Compound 99] | 80 to 100 | 80 to 100 | 80 to 100 | – | 0 to 49 |
| Fc1cc(Oc2cc(C(F)(F)F)ncn2)ccc1CCNc1ncnc2c(F)ccc(F)c12 [Compound 116] | 80 to 100 | 80 to 100 | 80 to 100 | 80 to 100 | – |
| Cc1cc(CCNc2ncnc3c(F)cc(F)c(F)c23)ccc1Oc1cc(C(F)(F)F)ccn1 [Compound 80] | 80 to 100 | 80 to 100 | 80 to 100 | – | 80 to 100 |
| Fc1ccc(F)c2c(NCCOc3ccc(Oc4cc(C(F)(F)F)ccn4)cc3)ncnc12 [Compound 8] | 80 to 100 | 80 to 100 | 80 to 100 | – | 50 to 79 |
| [O-][n+]1ccc(Oc2ccc(CCNc3ncnc4c(F)ccc(F)c34)cc2)c(C(F)(F)F)c1 [Compound 84] | 80 to 100 | 80 to 100 | 80 to 100 | – | 80 to 100 |
| Cc1cc(CCNc2ncnc3c(F)cc(F)c(F)c23)ccc1O [Compound 70] | 50 to 79 | 0 to 49 | 50 to 79 | – | 50 to 79 |
| CCCOc1cc(CCNc2ncnc3c(F)ccc(F)c23)ccc1Oc1cc(C(F)(F)F)ccn1 [Compound 57] | 80 to 100 | 80 to 100 | 80 to 100 | – | 80 to 100 |
| Fc1ccc(F)c2c(NCCc3ccc(Oc4c(Cl)cnc(C(F)(F)F)c4Cl)cc3)ncnc12 [Compound 95] | 80 to 100 | 80 to 100 | 80 to 100 | – | 80 to 100 |
| COc1cc(CCNc2ncnc3c(F)ccc(F)c23)ccc1Oc1cc(C(F)(F)F)cc[n+]1[O-] [Compound 59] | 80 to 100 | 80 to 100 | 80 to 100 | – | 80 to 100 |
| CCc1cc(CCNc2ncnc3c(F)ccc(F)c23)ccc1Oc1cc(C(F)(F)F)ccn1 [Compound 66] | 80 to 100 | 80 to 100 | 80 to 100 | – | 80 to 100 |
| C=Cc1cc(CCNc2ncnc3c(F)ccc(F)c23)ccc1Oc1cc(C(F)(F)F)ccn1 [Compound 65] | 80 to 100 | 80 to 100 | 80 to 100 | – | 80 to 100 |
| Oc1ccc(CCNc2ncnc3c(F)cc(F)c(F)c23)cc1Cl [Compound 88] | 0 to 49 | 80 to 100 | 0 to 49 | – | 0 to 49 |
| Fc1ccc(F)c2c(NCCc3ccccc3)ncnc12 [Compound 94] | 0 to 49 | 80 to 100 | 80 to 100 | – | 50 to 79 |
| N#Cc1cc(CCNc2ncnc3c(F)ccc(F)c23)ccc1Oc1cc(C(F)(F)F)ccn1 [Compound 41] | 80 to 100 | 80 to 100 | 80 to 100 | 50 to 79 | – |
